The values that follow come from patent US20070010548A1, “Compounds having inhibitive activity of phosphatidylinositol 3-kinase and methods of use thereof” (ZENTARIS GmbH, priority 2003, published 2007).

The test system of assay [1] is tumor cells altered in PI 3-K/PTEN. Briefly: Cellular growth inhibition assays on tumor cells altered in PI 3-K/PTEN. Type of assay: cell-based. The note with it: for IC50: approximate, read-out: Approx. mIC50 in cellular assays. Here is the method: The ovarian cancer cell line SKOV3 is not altered in PI 3-K signaling and should be less sensitive to the anti-proliferative effects produced by treatment with PI 3-K inhibitors, while the OVCAR3 cell line, which is altered in PI 3-K signaling, via amplification of PI 3-K activity, should be sensitive. SKOV3 cells were seeded in 96-well cell culture plates (Greiner) at a density of 20,000 cells per well in McCoys 5A media (GibcoBRL) with 10% fetal calf serum and 20 mM L-glutamine. OVCAR3 cells were seeded at a density of 15,000 cells per well in RPMI 1640 media (GibcoBRL) containing 20 mM 1-glutamine, 0.01 ng/ml bovine insulin, 10 mM Hepes pH 7.4, 1 mM sodium pyruvate, 2.5 g/L glucose, and 20% fetal calf serum. After 24 hours, compounds were added to cell media to a final concentration of 1 μM, and the cells were grown in the presence of the compounds for 48 hours, in media containing 0.5% fetal calf serum. Viability was determined using a MTT cell proliferation assay (R and D Systems) and comparison to DMSO alone controls (100% viability). Compounds which result in reduced viability may act either by inhibiting cell proliferation or by inducing apoptosis (programmed cell death).
Selected compounds were evaluated against paired ovarian cancer cell lines at a range of concentrations to determine effective concentrations for growth inhibition.
MDA-MB-468 and MDA-MB-231 cells were seeded in 96-well cell culture plates (Greiner) at a density of 20,000 cells per well in RMPI media (GibcoBRL) with 10% fetal calf serum and 20 mM L-glutamine. After 24 hours, compounds were added to cell media to a final concentrations ranging from 10 nM to 100 μM, and the cells were grown in the presence of the compounds for 48 hours in RMPI media containing 0.5% fetal calf serum and 20 mM L-glutamine. Viability was determined using a MTT cell proliferation assay (R and D Systems) and comparison to DMSO alone controls (100% viability). Compounds which result in reduced viability may act either by inhibiting cell proliferation or by inducing apoptosis (programmed cell death). […] Selected compounds were evaluated against the paired breast cancer cell lines at a range of concentrations to determine effective concentrations for growth inhibition.
Table 3 summarizes the data for several compounds of this structural group, including the IC50 for inhibition of enzyme activity in vitro, cellular mIC50 and anti-proliferative activity against tumor cells altered in PI 3-K mediated signaling, and effects on cellular levels of phospho-Akt.

Assay [2] deals with phospho-Akt in MDA-MB-468 cells. Briefly: Phospho-Akt levels in MDA-MB-468 cells (PathScan phospho-Akt ELISA / immunoblotting). Type of assay: cell-based, human. The note with it: 50 μM, 4 hours, serum-starved MDA-MB-468 cells; DMSO alone = 100%. As for the experimental part:
Because phosphorylation and activation of PKB/Akt is dependent on PI 3-K activity, PI 3-K inhibitors decrease the cellular levels of phospho-Akt. MDA-MB-468 cells show constitutively high levels of phospho-Akt as a result of abnormal activation of PI 3-K signaling.
The effect of treatment with PI 3-K inhibitors on phospho-Akt levels in these cells was determined as follows. Cells were plated into 6-well cell culture dishes at a density of 5×10^5 cells per well in RMPI media containing 10% fetal calf serum and 2 mM L-glutamine. Twenty-four hours later, media was removed and replaced with serum-free RMPI containing 2 mM L-glutamine. The cells were serum-starved overnight.
Compounds were diluted into serum-free media to a final concentration of 50 μM and added to the cells. The cells were incubated in the presence of PI 3-K inhibitors for 4 hours. Phospho-Akt levels were determined using one of the following methods.
To determine phospho-Akt levels using immunoblotting, cells were washed twice with PBS and lysed in ice-cold lysis buffer (1% Triton X-100, 50 mM Hepes pH 7.4, 150 mM NaCl, 1.5mM MgCl2, 1 mM EGTA, 100 mM NaF, 10 mM Sodium Pyrophosphate, 1 mM Na(subscript: 3)VO(subscript: 4), 10% glycerol, InmM phenylmethylsulfonyl fluoride, and 10 ug/ml aprotifin). Total protein concentration was determined using a BCA assay. 30ug of total cell lysate protein was diluted into Laemmli sample buffer and loaded onto a 10% acrylamide gel, subjected to SDS-PAGE, and transferred to a PVDF membrane. The membrane was blocked with 5% bovine serum albumin and then incubated at 4° C. overnight with antibody. The membrane was washed in TBS-T (10 mM Tris-HCl pH 7.4, 150 mM NaCl, and 0.1% Tween-20) and incubated with HRP-conjugated antibody (diluted in 5% milk in TBS-T) at room temperature for 1 h. The membrane was washed extensively and the proteins were visualized by chemiluminscent detection. The compounds effects on phospho-Akt levels were observed as relative differences in the amount of phospho-Akt detected by immunoblotting.
Effects on cellular levels of phospho-Akt following treatment with PI 3-K inhibitors were quantified using the PathScan phospho-Akt ELISA (Cell Signaling Technologies)., a sandwich ELISA for detection of phospho-Akt. The kit was used according to the manufacturer protocol. Absorbance at 450 nm was determined for each sample and used directly as equivalent of phospho-Akt levels.
Percent decreases in phospho-Akt levels were determined by normalizing relative to blank samples (0%/O) and control samples treated with DMSO alone (1 00%).
(In general: An ELISA detects its analyte on a solid surface through an enzyme-linked reagent.)

The next assay relates to MA-MB-468 cells. Kind of assay: Three dimensional matrix model of tumor cell growth. The conditions noted are these: Homo sapiens, read-out: Percent Inhibition of Tumor Cell Viability. Type of assay: cell-based. As for the experimental part:
PI 3-K inhibitors are assayed for effects on tumor cells grown in three-dimensional matrix that more closely mimics the environment of a tumor than other cell culture models. MA-MB-468 cells are mixed in a matrix solution, such as Matrigel (13D Biosciences) at 2×10 ^6 cells/ml and 100 μl of this mixture added to each well of a 24 well cell culture plate. Each well is 6.5 mm in diameter and 2×10^5 cells are added per well. Once the matrix is solidified, RMPI media containing 10% fetal calf serum and 2 mM L-glutamine is added to each well. After approximately 14 days of culture, the compounds are added to cell media at final concentrations ranging from 10 nM to 100 μM, and the cells are grown in the presence of the compounds for 7 days in RMPI media containing 0.5% fetal calf serum and 20 mM L-glutamine.
Following this treatment, cell growth in the three dimensional matrix can be measured using a cell viability assay such as the CellTiter 96 One Solution Cell Proliferation Assay (Promega, G3582). […] of assay solution is added per well, the cells are incubated for 3 hours. Absorbance at 550 nm is determined for each well and used directly as being equivalent of cell number. In addition, live and dead cells can be distinguished and observed using fluorescence microscopy after staining with Fluorescein diacetate (Sigma), which labels live cells, and propidium iodide (Sigma), which labels dead cells.
The PI 3-K inhibitors of the present invention show anti-proliferative effects in this model of tumor cell growth, as shown by the representative data in Table 6, which compares the anti-proliferative effects of one inhibitor compared to the effects of the benchmark PI 3-K inhibitor LY294002. The PI 3-K inhibitors of the present invention also show enhanced anti-proliferative activity when combined with other cancer drugs, for example paclitaxel or doxorubicin.

Take `CC1(C)CC(=O)C2=C(C1)Nc1c(c(C(C)(C)C)nn1-c1ccc(Cl)c(Cl)c1)C2c1cccc(OCc2ccccc2)c1` (stereo not shown) [Compound 964260]: in assay [1], the “Anti-proliferative effects on tumor cells altered in PI 3-K/PTEN” value (shortened to “Anti-proliferative effects”) is “Yes” and the IC50 was below 20 µM. Further, the “Approx. % decrease phospho-Akt relative to controls” value in assay [2] is given as 40%.

Consider `CC1(C)CC(=O)C2=C(C1)Nc1c(c(C(C)(C)C)nn1C(C)(C)C)C2c1ccc(OCc2ccccc2)c(OCc2ccccc2)c1` (stereo not shown) [Compound 963985], for which, in assay [1], the “Anti-proliferative effects” value is “Yes” and the IC50 stood at 1 µM. Moreover, the “Approx. % decrease phospho-Akt relative to controls” value in assay [2] is on record as 50%. Further, the cytotoxicity at 1 µM in the assay with MA-MB-468 cells (Concentration 1 μM) was found to be 10%. In addition, in the assay on MA-MB-468 cells (Concentration 5 μM), the cytotoxicity at 5 µM amounted to 20%. Besides, the cytotoxicity at 10 µM in the assay on MA-MB-468 cells (Concentration 10 μM) amounted to 30%. Further, the cytotoxicity at 50 µM with MA-MB-468 cells (Concentration 50 μM) is 40%.

For the compound `COc1ccc(OC)c(C2C3=C(CC(C)(C)CC3=O)Nc3c2c(C(C)(C)C)nn3-c2ccc(C)cc2C)c1` (stereo not shown) [Compound 964232], in assay [1], the “Anti-proliferative effects” value is on record as “Yes” and the IC50 was below 20 µM. In addition, the “Approx. % decrease phospho-Akt relative to controls” value in assay [2] is reported as 50%.

In the case of `CC1(C)CC(=O)C2=C(C1)Nc1c(c(-c3ccccc3)nn1-c1cccc(F)c1)C2c1ccc(C(F)(F)F)cc1` (stereo not shown) [Compound 964661], in assay [1], the “Anti-proliferative effects” value was “Yes” and the IC50 is below 20 µM. The “Approx. % decrease phospho-Akt relative to controls” value in assay [2] was 40%.

On to `COc1ccccc1C1C2=C(CC(C)(C)CC2=O)Nc2c1c(C(C)(C)C)nn2-c1ccc(Cl)c(C)c1` (stereo not shown) [Compound 964247], for which, in assay [1], the “Anti-proliferative effects” value was “Yes” and the IC50 was below 20 µM. Further, in assay [2], the “Approx. % decrease phospho-Akt relative to controls” value is on record as 30%.

For `Cc1ccc(C2C3=C(CC(C)(C)CC3=O)Nc3c2c(C(C)(C)C)nn3-c2ccc(C)cc2)cc1` (stereo not shown) [Compound 964028, 3-t-butyl-4-(4-methylphenyl)-7,7-dimethyl-1-(4-methylphenyl)-4,7,8,9-tetrahydro-1H-pyrazolo[3,4-b]quinolin-5(6H)-one], in assay [1], the “Anti-proliferative effects” value is listed as “Yes” and the IC50 is 10 µM. Further, the “Approx. % decrease phospho-Akt relative to controls” value in assay [2] stood at 40%.

For `COc1ccc(-n2nc(C(C)(C)C)c3c2NC2=C(C(=O)CC(C)(C)C2)C3c2ccccc2Cl)cc1` (stereo not shown) [Compound 964076, 3-t-butyl-4-(2-chlorophenyl)-7,7-dimethyl-1-(4-methoxyphenyl)-4,7,8,9-tetrahydro-1H-pyrazolo[3,4-b]quinolin-5(6H)-one], in assay [1], the “Anti-proliferative effects” value is “Yes” and the IC50 came out at 10 µM. Also, the “Approx. % decrease phospho-Akt relative to controls” value in assay [2] was determined as 60%.
